Like-named read-outs stand apart in the source and are kept apart here.
Experiments:
insulin receptor [1] = target: T1, insulin receptor (Homo sapiens, UniProt P06213); test: Assays of insulin action (several biological assays, classification agonist/antagonist)
Target sequence in this assay (P06213 with tags, fused parts or gaps): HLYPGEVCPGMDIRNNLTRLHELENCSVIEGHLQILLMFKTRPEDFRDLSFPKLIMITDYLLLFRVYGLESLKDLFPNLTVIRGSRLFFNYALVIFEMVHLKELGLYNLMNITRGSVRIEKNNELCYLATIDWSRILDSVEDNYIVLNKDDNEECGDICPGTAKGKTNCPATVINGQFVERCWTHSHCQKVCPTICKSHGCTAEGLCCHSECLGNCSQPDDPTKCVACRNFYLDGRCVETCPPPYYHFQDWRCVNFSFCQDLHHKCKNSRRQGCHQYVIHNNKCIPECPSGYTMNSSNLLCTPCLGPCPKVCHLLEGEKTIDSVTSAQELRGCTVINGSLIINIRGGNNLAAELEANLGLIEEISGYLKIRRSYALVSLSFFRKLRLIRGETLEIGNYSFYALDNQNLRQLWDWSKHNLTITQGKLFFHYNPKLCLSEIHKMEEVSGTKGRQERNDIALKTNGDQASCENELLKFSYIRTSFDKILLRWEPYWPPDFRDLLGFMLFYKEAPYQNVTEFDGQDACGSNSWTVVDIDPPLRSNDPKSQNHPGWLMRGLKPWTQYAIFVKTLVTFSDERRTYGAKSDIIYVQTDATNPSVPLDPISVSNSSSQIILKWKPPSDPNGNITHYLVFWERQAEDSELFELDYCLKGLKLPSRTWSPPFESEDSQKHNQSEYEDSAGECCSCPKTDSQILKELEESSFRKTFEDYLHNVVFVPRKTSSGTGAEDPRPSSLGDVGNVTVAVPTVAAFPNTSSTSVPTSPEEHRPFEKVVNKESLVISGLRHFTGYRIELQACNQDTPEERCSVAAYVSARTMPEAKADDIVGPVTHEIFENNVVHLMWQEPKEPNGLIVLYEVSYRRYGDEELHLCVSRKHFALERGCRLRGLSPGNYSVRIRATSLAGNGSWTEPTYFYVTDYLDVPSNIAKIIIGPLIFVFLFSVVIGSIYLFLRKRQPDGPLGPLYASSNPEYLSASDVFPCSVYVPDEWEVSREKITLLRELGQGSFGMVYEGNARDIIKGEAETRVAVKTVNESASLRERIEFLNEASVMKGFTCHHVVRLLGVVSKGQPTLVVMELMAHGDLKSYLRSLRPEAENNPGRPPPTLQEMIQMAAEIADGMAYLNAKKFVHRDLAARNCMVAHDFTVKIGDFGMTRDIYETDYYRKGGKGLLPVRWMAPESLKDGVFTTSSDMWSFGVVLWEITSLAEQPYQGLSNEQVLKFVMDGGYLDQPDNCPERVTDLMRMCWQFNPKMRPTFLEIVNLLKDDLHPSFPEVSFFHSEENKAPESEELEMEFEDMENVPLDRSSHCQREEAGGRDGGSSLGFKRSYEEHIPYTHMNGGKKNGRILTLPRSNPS

insulin receptor [2] = target: T1, insulin receptor; test: 125I insulin binding, insulin receptors from a number of sources; design: host or cells: several: placental membranes, CHO.T11 cells, WGA purified receptors; settings: range over receptor sources
Description: (§1) Tubes were mixed and incubated for 16 h at 4° C. After the incubation, the tubes were placed on ice and 300 μL of a 1:5 suspension of 0.4% bovine-γ-globulin in 20% polyethyleneglycol 6000 (BDH chemicals) was added to each tube, mixed thoroughly and left to incubate for 30 min on ice. The tubes were then centrifuged (3,000 g) for 30 min at 4° C., the supernatant was aspirated off and the pellet counted for radioactivity. […] Inhibition constants were estimated by graphical analysis of displacement plots or calculated using the curve fitting programs EBDA and/or LIGAND.
Target sequence in this assay (P06213 28-758 limits assumed): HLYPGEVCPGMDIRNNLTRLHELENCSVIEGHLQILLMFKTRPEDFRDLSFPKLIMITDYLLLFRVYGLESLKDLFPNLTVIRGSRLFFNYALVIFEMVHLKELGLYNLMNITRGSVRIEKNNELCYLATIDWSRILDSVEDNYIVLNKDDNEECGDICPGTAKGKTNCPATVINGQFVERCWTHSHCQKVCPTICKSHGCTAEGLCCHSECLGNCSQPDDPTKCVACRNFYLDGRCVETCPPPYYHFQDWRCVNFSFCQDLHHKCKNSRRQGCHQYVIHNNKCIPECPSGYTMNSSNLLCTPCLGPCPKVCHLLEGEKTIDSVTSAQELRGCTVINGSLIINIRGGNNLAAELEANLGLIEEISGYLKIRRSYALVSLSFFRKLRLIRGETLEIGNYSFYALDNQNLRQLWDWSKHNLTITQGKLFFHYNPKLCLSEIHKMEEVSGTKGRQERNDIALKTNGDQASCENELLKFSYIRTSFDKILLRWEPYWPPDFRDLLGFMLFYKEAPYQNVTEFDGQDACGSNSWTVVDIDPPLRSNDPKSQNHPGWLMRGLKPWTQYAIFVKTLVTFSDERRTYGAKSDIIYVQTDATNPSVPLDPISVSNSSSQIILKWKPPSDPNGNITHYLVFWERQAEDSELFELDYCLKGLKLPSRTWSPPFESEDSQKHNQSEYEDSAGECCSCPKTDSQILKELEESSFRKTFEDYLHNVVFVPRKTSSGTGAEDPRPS

3T3L1 adipocyte cells = test: Glucose transport (3H-deoxyglucose uptake) in 3T3L1 adipocyte cells; assay type: cell-based, mouse
Description: Glucose transport was determined using a modification of the method of S. J. Isakoff et at. (23). The assay involved measuring the effect of compounds on the uptake of ^3H-deoxyglucose into 3T3L1 adipocyte cells.
The cell line, 3T3-L1, derived from mouse embryo fibroblasts, was grown in 250 mL tissue culture flasks containing 15 mL medium made up of DMEM (Dulbecco's modified Eagle's medium containing glutamine, 2 mM; sodium bicarbonate, 30 mM; penicillin 71.5 mg/litre; streptomycin, 152.5 mg/litre) supplemented with 10% foetal calf serum (FCS), pH 7.4. Cells were maintained in a humidified incubator at 37° C. in a 5% CO2 environment. The medium was changed every 3 days and the cells were split when they were about 70-80% confluent.
3T3-L1 fibroblast cells from one tissue culture flask were suspended in 50 mL of DMEM media containing 10% FCS and 0.5 mL of this suspension were seeded into each well of two 48-well tissue culture plates. The differentiation of the cells was initiated when the fibroblast cells were fully confluent. Routinely, differentiation was induced on cells that had been growing in tissue culture plates for 4-5 days. […] The cells were subsequently maintained with DMEM medium containing 10% FCS.
One day prior to the glucose transport assay, cell medium was replaced with DMEM containing 10% charcoal-treated foetal calf serum (CTFCS). On the day of the assay, the medium was aspirated and each well was washed with 1 mL of 25 mM Hepes, pH 7.4 containing 0.9% NaCl (NaCl-HEPES). […] Ten microlitres of NaCl-HEPES containing 3 mM 2-deoxy-D-glucose and 0.1 μCi 2-deoxy-D-[1-^3H]glucose were then added. Following a 10 min incubation at 37° C., the medium was aspirated off and the wells rapidly washed three times with 1 mL of ice-cold 50 mM phosphate, pH 7.5 containing 150 mM NaCl (PBS) and 10 mM glucose. Two hundred microlitres of 3% Triton X-100 was then added to each well and left to incubate for a minimum of 10 minutes. One hundred microlitres of the solubilised cells was then added to 2.5 mL of liquid scintillation fluid and counted for radioactivity in a Beckman β-counter.

insulin receptor [3] = target: T1, insulin receptor; test: 125I insulin binding to wheat germ agglutinin purified insulin receptors (WGA.IR); design: host or cells: several: placental membranes, CHO.T11 cells, WGA purified receptors; settings: LIGAND 1-site fit
Description: as §1
Target sequence in this assay (P06213 28-758 limits assumed): as above

[4] = target: insulin receptor β-subunit associated tyrosine kinase activity (Homo sapiens, UniProt P06213); test: Protein tyrosine kinase (PTK) assay, 32P incorporation into FYF peptide; assay type: biochemical; settings: for effect of compound alone on 32P incorporation into FYF peptide: basal, absence of insulin; for Ki: read-out: estimated inhibition constant, PTK assay
Description: Protein tyrosine kinase activity was determined using a modification of the method of N. Konstantopoulos (22).
The reaction was allowed to proceed for 20 minutes at 30° C. before it was terminated by the addition of 12.5 μL of 7.5 M guanidine hydrochloride. An aliquot (10 μL) of the reaction mixture was then spotted onto a Whatman 81 phosphocellulose paper (15 mm×15 mm), washed three times (2 min per wash) in about 50 mL of 30% acetic acid, 0.05% orthophosphoric acid then finally, with one wash in about 200 mL of water. The papers were then rinsed briefly (15 sec) in 95% ethanol, dried, suspended in 2.5 mL of scintillation fluid (Beckman) and counted for radioactivity in a Beckman β-counter.

insulin receptor [5] = target: T1, insulin receptor; test: 125I insulin binding to CHO.T11 cells; design: expressed in transfected cells
Description: as §1
Target sequence in this assay (P06213 28-758 limits assumed): as above

IGF-1 receptor = IGF-1 receptor (Homo sapiens, UniProt P08069); test: 125I IGF-1 binding to human placental plasma membranes (HPPM); design: from tissue; host or cells: human placenta, plasma membranes; settings: HPPM; read-out: Ki, competition for 125I IGF-1 binding
insulin receptor [6] = target: T1, insulin receptor; test: 125I insulin binding to human placental plasma membranes (HPPM); design: Human Placental Plasma Membranes—50 mM Hepes, pH 7.8 @ 4 C containing 100 U/mL Bacitracin; from tissue; host or cells: human placenta, plasma membranes
Description: as §1
Target sequence in this assay (P06213 28-758 limits assumed): as above

[7] = Mus musculus, 3T3-L1; read-out: estimated IC50, glucose transport
[8] = read-out: estimated IC50, 32P incorporation into FYF peptide
[9] = human placental plasma membranes, 16 h at 4° C.
[10] = 3T3L1 cells, 2 nM insulin; read-out: estimated inhibition constant (Ki), glucose transport assay

insulin receptor β-subunit associated tyrosine kinase activity, sequence (P06213 28-758 limits assumed): as above
IGF-1 receptor, sequence (P08069 31-736 limits assumed): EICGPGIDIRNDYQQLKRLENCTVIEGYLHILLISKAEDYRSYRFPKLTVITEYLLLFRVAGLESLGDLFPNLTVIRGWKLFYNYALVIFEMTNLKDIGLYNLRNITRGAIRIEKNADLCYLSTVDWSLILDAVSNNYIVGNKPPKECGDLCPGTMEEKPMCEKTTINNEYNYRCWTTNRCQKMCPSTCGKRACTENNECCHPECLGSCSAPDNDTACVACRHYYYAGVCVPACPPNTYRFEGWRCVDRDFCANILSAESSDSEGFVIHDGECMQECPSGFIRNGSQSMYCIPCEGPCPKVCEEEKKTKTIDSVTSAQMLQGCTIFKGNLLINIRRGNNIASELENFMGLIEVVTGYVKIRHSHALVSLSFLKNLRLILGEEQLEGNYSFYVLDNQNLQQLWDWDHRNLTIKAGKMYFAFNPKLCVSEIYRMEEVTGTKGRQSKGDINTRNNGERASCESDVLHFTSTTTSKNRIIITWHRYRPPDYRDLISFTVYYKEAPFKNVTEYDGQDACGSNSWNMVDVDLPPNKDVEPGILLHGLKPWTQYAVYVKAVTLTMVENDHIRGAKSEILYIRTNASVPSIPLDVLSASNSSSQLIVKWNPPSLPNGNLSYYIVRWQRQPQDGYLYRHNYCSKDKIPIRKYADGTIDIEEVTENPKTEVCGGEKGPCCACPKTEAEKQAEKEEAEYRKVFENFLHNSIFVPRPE

SMILES	classification of insulin action (insulin receptor [1])	Ki (insulin receptor [3])	Ki (insulin receptor [6]; [9])	Ki (3T3L1 adipocyte cells; [10])	effect of compound alone on glucose transport (3T3L1 adipocyte cells; basal, no insulin)	effect of compound alone on 32P incorporation into FYF peptide [4]	Ki [4]	other results
O=C(O)c1cc2ccccc2c(Cc2c(O)c(C(=O)O)cc3ccccc23)c1O [IM 025, 4,4′-Methylenebis[3-hydroxy-2-naphthalenecarboxylic acid]]	antagonists of insulin action	108 ± 32 µM						Ki (insulin receptor [2]): 100 to 400 µM; IC50 (3T3L1 adipocyte cells; [7]): 170 µM; IC50 [4, 8]: 150 µM; Ki (insulin receptor [5]): 137 to 337 µM
CCCc1c(OCCCOc2cc(O)c(C(C)=O)cc2CC)ccc2c1OC(C(=O)O)CC2 (stereo not shown) [IM 071, 7-[3-(4-acetyl-2-ethyl-5-hydroxyphenoxy)propoxy]-3,4-dihydro-8-propyl-2H-1-benzopyran-2-carboxylic acid]	antagonists of insulin action							
O=S(=O)(NS(=O)(=O)C(F)(F)F)c1cc(Cl)cc(Cl)c1OS(=O)(=O)c1cc(Cl)cc(Cl)c1O [IM 103, 2,4-dichloro-6-(N-(trifluoromethanesulfonyl))sulfamoylphenyl 3,5-dichloro-2-hydroxybenzenesulfonate]	agonists of insulin action	83 µM	137 ± 45 µM					Ki (IGF-1 receptor): 59 µM; EC50 (3T3L1 adipocyte cells; Mus musculus, 3T3-L1; compound alone; read-out: apparent EC50, stimulation of glucose transport): 45 ± 7 µM; efficacy compared with insulin, glucose transport (3T3L1 adipocyte cells; compound alone, relative to maximal dose of insulin (100 nM)): about 15%; concentration at apex of bi-phasic dose response curve (3T3L1 adipocyte cells; glucose transport): 110 µM; effect on insulin stimulated glucose transport (3T3L1 adipocyte cells; in presence of insulin (2 nM)): abolishes the insulin stimulation of glucose transport in a dose dependent manner; Ki (insulin receptor [5]): 132 ± 29 µM
CCCc1c(COc2ccc3c(=O)cc(C(=O)O)oc3c2CCC)ccc(C(C)=O)c1O [IM 127, 7-[(4-acetyl-3-hydroxy-2-propylphenyl)methoxy]-4-oxo-8-propyl-4H-1-benzopyran-2-carboxylic acid]	antagonists of insulin action	295 µM	140 to 320 µM	60 µM				
CCCc1c(OCCCOc2cc(O)c(-c3cc[nH]n3)cc2CC)ccc2c1OC(C(=O)O)CC2 (stereo not shown) [IM 132, 3,4-dihydro-8-propyl-7-[[3-[2-ethyl-5-hydroxy-4-(1H-pyrazol-3-yl)phenoxy]propyl]oxy]-2H-1-benzopyran-2-carboxylic acid]	antagonists of insulin action			64 µM	does not increase ^32P incorporation into FYF peptide or activate glucose transport	does not increase ^32P incorporation into FYF peptide	360 µM	Ki (insulin receptor [2]): 200 to 450 µM; effect on insulin stimulated glucose transport (3T3L1 adipocyte cells; in presence of insulin (2 nM)): significant synergism with insulin
CCCc1c(OCCCOc2cc(O)c(OCC)cc2CC)ccc2c1OC(C(=O)O)CC2 (stereo not shown) [IM 134, 3,4-dihydro-8-propyl-7-[[3-[2-ethyl-5-hydroxy-4-ethoxyphenoxy]propyl]oxy]-2H-1-benzopyran-2-carboxylic acid]	antagonists of insulin action		900 µM	60 to 110 µM	does not increase ^32P incorporation into FYF peptide or glucose transport	does not increase ^32P incorporation into FYF peptide	300 to 400 µM	
CCCc1c(OCc2ccc3ccccc3n2)ccc2c1OC(C(=O)O)CC2 (stereo not shown) [IM 143, 8-propyl-7-(quinol-2′-ylmethoxy)-3,4-dihydro-2H-1-benzopyran-2-carboxylic acid]	antagonists of insulin action			40 µM	does not stimulate glucose transport activity			Ki (insulin receptor [6]; human placental plasma membranes): ~2000 µM
CCCc1c(OCc2ccc3ccccc3c2)ccc2c1OC(C(=O)O)CC2 (stereo not shown) [IM 144, 7-(naphth-2′-ylmethoxy)-8-propyl-3,4-dihydro-2H-1-benzopyran-2-carboxylic acid]	antagonists of insulin action		900 µM	125 µM	does not increase ^32P incorporation into FYF peptide or activate glucose transport	does not increase ^32P incorporation into FYF peptide	130 µM	
CCCN(CCC)c1c([N+](=O)[O-])cc(S(=O)(=O)NS(=O)(=O)C(F)(F)F)cc1[N+](=O)[O-] [IM 145, N-(trifluoromethanesulfonyl)-3,5-dinitro-4-(N′,N′-dipropylamino)benzenesulfonamide]	antagonists of insulin action				does not stimulate PTK or glucose transport activity	does not stimulate PTK		IC50 (3T3L1 adipocyte cells; Mus musculus, 3T3-L1, read-out: estimated IC50, glucose transport): 60 µM; IC50 [4]: 90 µM; Ki (insulin receptor [6]): ~1000 µM
CCCc1c(OCCCOc2cc(O)c(-c3ccc(F)cc3)cc2CC)ccc2c1OC(C(=O)O)CC2 (stereo not shown) [IM 171, 8-propyl-7-[3-[4-(4-fluorophenyl)-2-ethyl-5-hydroxyphenoxy]propoxy]-3,4-dihydro-2H-1-benzopyran-2-carboxylic acid]	antagonists of insulin action		370 µM		does not increase ^32P incorporation into FYF peptide or activate glucose transport	does not increase ^32P incorporation into FYF peptide		IC50 (3T3L1 adipocyte cells; [7]): 80 µM; IC50 [4, 8]: 250 µM

Reference: patent US6933272B1 (priority 1998, dated 2005)
